In patent publication US20250235460A1, “COMBINATION THERAPY USING GLUCOSE-DEPENDENT INSULINOTROPIC POLYPEPTIDE RECEPTOR ANTAGONIST COMPOUNDS AND GLP-1 RECEPTOR AGONIST COMPOUNDS” (Pfizer Inc., priority 2024, published 2025):

Key:
human GLP-1R [1] = molecular target: human GLP-1R (Homo sapiens, UniProt P43220, G168S); test: CHO GLP-1R Clone H6 cAMP HTRF agonist assay (Assay 1, high receptor density); type: cell-based; conditions: for EC50: CHO GLP-1R clone H6, cAMP HTRF, geometric mean; for Emax: CHO GLP-1R clone H6, arithmetic mean, relative to saturating GLP-1 (1 μM), read-out: Assay 1 Emax (%)
Procedure, shortened: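 EC50 values are reported as geometric means and Emax as arithmetic means across the listed number of replicates, both given to two significant figures.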

human GLP-1R [2] = molecular target: human GLP-1R (Homo sapiens, UniProt P43220, L260F); test: CHO GLP-1R Clone C6 cAMP HTRF agonist assay (Assay 2, low receptor density); type: cell-based; conditions: for EC50: CHO GLP-1R clone C6, cAMP HTRF, geometric mean
Source text: In Table 5 and Table 6, assay data are presented to two (2) significant figures as the geometric mean (EC50s) and arithmetic mean (Emax) based on the number of replicates listed (Number). A blank cell means there was no data for that Example or the Emax was not calculated.

[3] = CHO GLP-1R clone C6, arithmetic mean, relative to saturating GLP-1 (1 μM)

Sequence of human GLP-1R (Homo sapiens, UniProt P43220, L260F) (P43220 24-463 L260F): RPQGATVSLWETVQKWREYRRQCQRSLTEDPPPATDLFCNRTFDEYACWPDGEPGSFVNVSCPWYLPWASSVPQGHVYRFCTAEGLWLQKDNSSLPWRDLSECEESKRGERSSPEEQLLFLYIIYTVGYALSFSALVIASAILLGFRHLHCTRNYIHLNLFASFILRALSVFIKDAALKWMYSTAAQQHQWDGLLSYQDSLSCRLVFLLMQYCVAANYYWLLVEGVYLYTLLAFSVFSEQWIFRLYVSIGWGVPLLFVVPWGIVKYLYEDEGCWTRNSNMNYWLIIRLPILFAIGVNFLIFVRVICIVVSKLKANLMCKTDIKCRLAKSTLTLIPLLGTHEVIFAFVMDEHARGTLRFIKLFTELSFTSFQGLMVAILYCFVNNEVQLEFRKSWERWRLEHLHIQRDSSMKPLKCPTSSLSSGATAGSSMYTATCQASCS
Sequence of human GLP-1R (Homo sapiens, UniProt P43220, G168S) (P43220 24-463 G168S): as the sequence (P43220 24-463 L260F) above, with G145S, F237L counted along it

`Cn1ccnc1Cn1c(CN2CCC(c3cccc(OCc4ccc(Cl)cc4F)n3)CC2)nc2ccc(C(=O)O)cc21` [Compound 256B, 2-[(4-{6-[(4-chloro-2-fluorobenzyl)oxy]pyridin-2-yl}piperidin-1-yl)methyl]-1-[(1-methyl-1H-imidazol-2-yl)methyl]-1H-benzimidazole-6-carboxylic acid] showed an EC50 (human GLP-1R [1]) of 0.0034 µM, an Emax (human GLP-1R [1]) of 79% and an EC50 (human GLP-1R [2]) of 0.053 µM. The Emax (human GLP-1R [2]; [3]) was 68%.

`CCn1c(CN2CCC(c3cccc(OCc4ccc(Cl)cc4F)n3)CC2)nc2ccc(C(=O)O)cc21` [Compound 257B, 2-[(4-{6-[(4-chloro-2-fluorobenzyl)oxy]pyridin-2-yl}piperidin-1-yl)methyl]-1-ethyl-1H-benzimidazole-6-carboxylic acid] showed an EC50 (human GLP-1R [1]) of 0.0086 µM, an Emax (human GLP-1R [1]) of 78% and an EC50 (human GLP-1R [2]) of 0.088 µM. The Emax (human GLP-1R [2]; [3]) was 82%.

`CC(C)n1c(CN2CCC(c3cccc(OCc4ccc(Cl)cc4F)n3)CC2)nc2ccc(C(=O)O)cc21` [Compound 258B, 2-[(4-{6-[(4-chloro-2-fluorobenzyl)oxy]pyridin-2-yl}piperidin-1-yl)methyl]-1-(propan-2-yl)-1H-benzimidazole-6-carboxylic acid] showed an EC50 (human GLP-1R [1]) of 0.0009 µM, an Emax (human GLP-1R [1]) of 94% and an EC50 (human GLP-1R [2]) of 0.0097 µM. For the same compound, the Emax (human GLP-1R [2]; [3]) was 100%.

`CC(C)(C)n1cnnc1Cn1c(CN2CCC(c3cccc(OCc4ccc(Cl)cc4F)n3)CC2)nc2ccc(C(=O)O)cc21` [Compound 259B, 1-[(4-tert-butyl-4H-1,2,4-triazol-3-yl)methyl]-2-[(4-{6-[(4-chloro-2-fluorobenzyl)oxy]pyridin-2-yl}piperidin-1-yl)methyl]-1H-benzimidazole-6-carboxylic acid] showed an EC50 (human GLP-1R [1]) of 0.00095 µM, an Emax (human GLP-1R [1]) of 95% and an EC50 (human GLP-1R [2]) of 0.013 µM. For the same compound, the Emax (human GLP-1R [2]; [3]) was 91%.

With `C[C@H]1CN(c2cccc(OCc3ccc(C#N)cc3)n2)CCN1Cc1nc2ccc(C(=O)O)cc2n1C[C@@H]1CCO1` [Compound 261B, 2-{[(2S)-4-{6-[(4-cyanobenzyl)oxy]pyridin-2-yl}-2-methylpiperazin-1-yl]methyl}-1-[(2S)-oxetan-2-ylmethyl]-1H-benzimidazole-6-carboxylic acid] the Emax (human GLP-1R [1]) was 100% and the “Assay 2 Emax (%)” value (human GLP-1R [2]; [3]) was 120%.

Compound `O=C(O)c1ccc2nc(CN3CCC(c4cccc(OCc5ccc(Cl)cc5F)n4)CC3)n(CCO)c2c1` [Compound 262B, 2-[(4-{6-[(4-chloro-2-fluorobenzyl)oxy]pyridin-2-yl}piperidin-1-yl)methyl]-1-(2-hydroxyethyl)-1H-benzimidazole-6-carboxylic acid] has an EC50 (human GLP-1R [1]) of 0.0016 µM, an Emax (human GLP-1R [1]) of 83% and an EC50 (human GLP-1R [2]) of 0.028 µM. For the same compound, the Emax (human GLP-1R [2]; [3]) was 88%.

With `CCc1nc(Cn2c(CN3CCC(c4cccc(OCc5ccc(Cl)cc5F)n4)CC3)nc3ccc(C(=O)O)cc32)no1` [Compound 263B, 2-[(4-{6-[(4-chloro-2-fluorobenzyl)oxy]pyridin-2-yl}piperidin-1-yl)methyl]-1-[(5-ethyl-1,2,4-oxadiazol-3-yl)methyl]-1H-benzimidazole-6-carboxylic acid] the EC50 (human GLP-1R [1]) was 0.033 µM, the Emax (human GLP-1R [1]) was 80% and the EC50 (human GLP-1R [2]) was 0.67 µM. For the same compound, the Emax (human GLP-1R [2]; [3]) was 110%.

With `O=C(O)c1ccc2nc(CN3CCC(c4cccc(OCc5ccc(Cl)cc5F)n4)CC3)n(Cc3ccc(Cl)cn3)c2c1` [Compound 277B, 2-[(4-{6-[(4-chloro-2-fluorobenzyl)oxy]pyridin-2-yl}piperidin-1-yl)methyl]-1-[(5-chloropyridin-2-yl)methyl]-1H-benzimidazole-6-carboxylic acid] the EC50 (human GLP-1R [1]) was 0.0081 µM, the Emax (human GLP-1R [1]) was 64% and the EC50 (human GLP-1R [2]) was 0.23 µM. It also gave an Emax (human GLP-1R [2]; [3]) of 77%.

Work on `CCN1CCC(Cn2c(CN3CCC(c4cccc(OCc5ccc(Cl)cc5F)n4)CC3)nc3ccc(C(=O)O)cc32)C1` (stereo not shown) [Compound 278B, 2-[(4-{6-[(4-chloro-2-fluorobenzyl)oxy]pyridin-2-yl}piperidin-1-yl)methyl]-1-[(1-ethylpyrrolidin-3-yl)methyl]-1H-benzimidazole-6-carboxylic acid] yielded an EC50 (human GLP-1R [1]) of 0.0094 µM, an Emax (human GLP-1R [1]) of 69% and an EC50 (human GLP-1R [2]) of 0.094 µM. For the same compound, the Emax (human GLP-1R [2]; [3]) was 92%.

`CN1CCCC(Cn2c(CN3CCC(c4cccc(OCc5ccc(Cl)cc5F)n4)CC3)nc3ccc(C(=O)O)cc32)C1` (stereo not shown) [Compound 279B, 2-[(4-{6-[(4-chloro-2-fluorobenzyl)oxy]pyridin-2-yl}piperidin-1-yl)methyl]-1-[(1-methylpiperidin-3-yl)methyl]-1H-benzimidazole-6-carboxylic acid] was tested, and the EC50 (human GLP-1R [1]) was 0.011 µM, the Emax (human GLP-1R [1]) was 71% and the EC50 (human GLP-1R [2]) was 0.41 µM. For the same compound, the Emax (human GLP-1R [2]; [3]) was 75%.

`O=C(O)c1ccc2nc(CN3CCC(c4cccc(OCc5ccc(Cl)cc5F)n4)CC3)n(CCC3CCCCO3)c2c1` (stereo not shown) [Compound 280B, 2-[(4-{6-[(4-chloro-2-fluorobenzyl)oxy]pyridin-2-yl}piperidin-1-yl)methyl]-1-[2-(tetrahydro-2H-pyran-2-yl)ethyl]-1H-benzimidazole-6-carboxylic acid] gave an EC50 (human GLP-1R [1]) of 0.011 µM, an Emax (human GLP-1R [1]) of 65% and an EC50 (human GLP-1R [2]) of 0.38 µM. It also gave an Emax (human GLP-1R [2]; [3]) of 96%.

With `CC(C)c1cc(Cn2c(CN3CCC(c4cccc(OCc5ccc(Cl)cc5F)n4)CC3)nc3ccc(C(=O)O)cc32)on1` [Compound 281B, 2-[(4-{6-[(4-chloro-2-fluorobenzyl)oxy]pyridin-2-yl}piperidin-1-yl)methyl]-1-{[3-(propan-2-yl)-1,2-oxazol-5-yl]methyl}-1H-benzimidazole-6-carboxylic acid] the EC50 (human GLP-1R [1]) was 0.014 µM, the Emax (human GLP-1R [1]) was 80% and the EC50 (human GLP-1R [2]) was 0.27 µM. It also gave an Emax (human GLP-1R [2]; [3]) of 92%.

With `CN1CCC(CCn2c(CN3CCC(c4cccc(OCc5ccc(Cl)cc5F)n4)CC3)nc3ccc(C(=O)O)cc32)CC1` [Compound 282B, 2-[(4-{6-[(4-chloro-2-fluorobenzyl)oxy]pyridin-2-yl}piperidin-1-yl)methyl]-1-[2-(1-methylpiperidin-4-yl)ethyl]-1H-benzimidazole-6-carboxylic acid] the EC50 (human GLP-1R [1]) was 0.015 µM, the Emax (human GLP-1R [1]) was 83% and the EC50 (human GLP-1R [2]) was 0.23 µM. It also gave an Emax (human GLP-1R [2]; [3]) of 110%.

In the case of `CN1CCC(Cn2c(CN3CCC(c4cccc(OCc5ccc(Cl)cc5F)n4)CC3)nc3ccc(C(=O)O)cc32)CC1` [Compound 283B, 2-[(4-{6-[(4-chloro-2-fluorobenzyl)oxy]pyridin-2-yl}piperidin-1-yl)methyl]-1-[(1-methylpiperidin-4-yl)methyl]-1H-benzimidazole-6-carboxylic acid], the EC50 (human GLP-1R [1]) is reported as 0.015 µM, the Emax (human GLP-1R [1]) is reported as 83% and the EC50 (human GLP-1R [2]) is reported as 0.27 µM. The Emax (human GLP-1R [2]; [3]) was 88%.

With `CN1CCCC1CCn1c(CN2CCC(c3cccc(OCc4ccc(Cl)cc4F)n3)CC2)nc2ccc(C(=O)O)cc21` (stereo not shown) [Compound 284B, 2-[(4-{6-[(4-chloro-2-fluorobenzyl)oxy]pyridin-2-yl}piperidin-1-yl)methyl]-1-[2-(1-methylpyrrolidin-2-yl)ethyl]-1H-benzimidazole-6-carboxylic acid] the EC50 (human GLP-1R [1]) was 0.018 µM, the Emax (human GLP-1R [1]) was 82% and the EC50 (human GLP-1R [2]) was 0.27 µM. The Emax (human GLP-1R [2]; [3]) was 83%.

Work on `CN1CCCCC1Cn1c(CN2CCC(c3cccc(OCc4ccc(Cl)cc4F)n3)CC2)nc2ccc(C(=O)O)cc21` (stereo not shown) [Compound 285B, 2-[(4-{6-[(4-chloro-2-fluorobenzyl)oxy]pyridin-2-yl}piperidin-1-yl)methyl]-1-[(1-methylpiperidin-2-yl)methyl]-1H-benzimidazole-6-carboxylic acid] yielded an EC50 (human GLP-1R [1]) of 0.021 µM, an Emax (human GLP-1R [1]) of 82% and an EC50 (human GLP-1R [2]) of 0.2 µM. For the same compound, the Emax (human GLP-1R [2]; [3]) was 81%.

Compound `CN1CCOC(CCn2c(CN3CCC(c4cccc(OCc5ccc(Cl)cc5F)n4)CC3)nc3ccc(C(=O)O)cc32)C1` (stereo not shown) [Compound 286B, 2-[(4-{6-[(4-chloro-2-fluorobenzyl)oxy]pyridin-2-yl}piperidin-1-yl)methyl]-1-[2-(4-methylmorpholin-2-yl)ethyl]-1H-benzimidazole-6-carboxylic acid] has an EC50 (human GLP-1R [1]) of 0.025 µM, an Emax (human GLP-1R [1]) of 78% and an EC50 (human GLP-1R [2]) of 0.33 µM. The Emax (human GLP-1R [2]; [3]) was 96%.

Compound `COCCN1CCC(Cn2c(CN3CCC(c4cccc(OCc5ccc(Cl)cc5F)n4)CC3)nc3ccc(C(=O)O)cc32)CC1` [Compound 287B, 2-[(4-{6-[(4-chloro-2-fluorobenzyl)oxy]pyridin-2-yl}piperidin-1-yl)methyl]-1-{[1-(2-methoxyethyl)piperidin-4-yl]methyl}-1H-benzimidazole-6-carboxylic acid] has an EC50 (human GLP-1R [1]) of 0.028 µM, an Emax (human GLP-1R [1]) of 80% and an EC50 (human GLP-1R [2]) of 0.45 µM. For the same compound, the Emax (human GLP-1R [2]; [3]) was 89%.

With `COCCN1CCCC(Cn2c(CN3CCC(c4cccc(OCc5ccc(Cl)cc5F)n4)CC3)nc3ccc(C(=O)O)cc32)C1` (stereo not shown) [Compound 288B, 2-[(4-{6-[(4-chloro-2-fluorobenzyl)oxy]pyridin-2-yl}piperidin-1-yl)methyl]-1-{[1-(2-methoxyethyl)piperidin-3-yl]methyl}-1H-benzimidazole-6-carboxylic acid] the EC50 (human GLP-1R [1]) was 0.03 µM, the Emax (human GLP-1R [1]) was 77% and the EC50 (human GLP-1R [2]) was 0.36 µM. It also gave an Emax (human GLP-1R [2]; [3]) of 89%.

`CC1(Cn2c(CN3CCC(c4cccc(OCc5ccc(Cl)cc5F)n4)CC3)nc3ccc(C(=O)O)cc32)CCOC1` (stereo not shown) [Compound 289B, 2-[(4-{6-[(4-chloro-2-fluorobenzyl)oxy]pyridin-2-yl}piperidin-1-yl)methyl]-1-[(3-methyltetrahydrofuran-3-yl)methyl]-1H-benzimidazole-6-carboxylic acid] was tested, and the EC50 (human GLP-1R [1]) was 0.036 µM, the Emax (human GLP-1R [1]) was 73% and the EC50 (human GLP-1R [2]) was 1.1 µM. For the same compound, the Emax (human GLP-1R [2]; [3]) was 79%.

Compound `O=C(O)c1ccc2nc(CN3CCC(c4cccc(OCc5ccc(Cl)cc5F)n4)CC3)n(Cc3cn[nH]c3)c2c1` [Compound 290B, 2-[(4-{6-[(4-chloro-2-fluorobenzyl)oxy]pyridin-2-yl}piperidin-1-yl)methyl]-1-(1H-pyrazol-4-ylmethyl)-1H-benzimidazole-6-carboxylic acid] has an EC50 (human GLP-1R [1]) of 0.044 µM, an Emax (human GLP-1R [1]) of 72% and an EC50 (human GLP-1R [2]) of 0.49 µM. For the same compound, the Emax (human GLP-1R [2]; [3]) was 98%.
